Results taken from patent publication US4082881A, “Topical and other type pharmaceutical formulations containing isosorbide carrier” (E. R. Squibb & Sons, Inc., priority 1976, dated 1978).

Experiments:
[1] = solubility of econazole nitrate in water and in the isosorbide preparations; type: physicochemical
[2] = solubility of the steroid in water and in hydrocarbon and other vehicles; type: physicochemical

| solubilized and available econazole nitrate relative to a conventional lotion or cream ([1]; in these preparations (Econazole Cream 0.5%, Econazole Lotion 0.5%) vs conventional lotion or cream, about) | solubility ([1]; water) | solubility in hydrocarbon vehicles ([2]; mineral oil, petrolatum or polyethylene gelled mineral oil, compared with water) | solubility ([2]; water) | solubility in water-soluble emulsifiers and oil liquids or emollients ([2]; water-soluble emulsifiers and oil liquids or emollients suggested for ointments, gels, creams and lotions) | SMILES |
| --- | --- | --- | --- | --- | --- |
| ≥ 5 times | ~1000 µg/mL | – | – | – | Clc1ccc(COC(Cn2ccnc2)c2ccc(Cl)cc2Cl)cc1 (centres unmarked) [econazole nitrate] |
| – | – | even less soluble | < 5 µg/mL | undesirably low solubility | CC1(C)O[C@@H]2C[C@H]3[C@@H]4CCC5=CC(=O)CC[C@]5(C)[C@@]4(F)[C@@H](O)C[C@]3(C)[C@]2(C(=O)CCl)O1 [21-chloro-9α-fluoro-Δ^4-pregnene-11β,16α,17α-triol-3,20-dione 16,17-acetonide] |
